Measurements: US9427001B2, “Enhanced bioavailable iodine molecules” (ZINPRO CORPORATION, priority 2011, dated 2016)
Like-named read-outs stand apart in the source and are kept apart here.

Experiments:
[1] = nonlactating pregnant beef cows; 60 mg Iodine/day for 10 days
[2] = nonlactating pregnant beef cows, bolus

Row | Substance | Average Serum iodine level (day 2-day 14) [1] | Serum iodine Day 10 (last treatment day) [1] | Average Serum iodine level (day 2-day 14) ([2]; 60 mg Iodine/day for 10 days (day 0-day 10), average of day 2-14) | Serum iodine Day 10 (last treatment day) ([2]; 60 mg Iodine/day for 10 days, peak value at day 10) | Blood levels of iodine compared with CaIO3 or EDDI ([2]; 60 mg iodine day 0-day 10)
1 | Zinc Hydroxy-Methylthio-Butyric Acid Iodide [Example III] | 386 | 630 |  |  | 
2 | Zinc Lysine Diiodide [Structure I] |  |  | 184 | 380 | higher blood levels of iodine than CaIO3 or EDDI
